The text below walks through data of paper PMC7573564, “The Sensing Liver: Localization and Ligands for Hepatic Murine Olfactory and Taste Receptors” (Frontiers in Physiology, 2020).

The subject of data set [1] is Olfr16 and its human homolog, OR10J5. Also on record: method as in von der Weid et al., 2015; Tong et al., 2017. The conditions noted are these: ref von der Weid et al., 2015; Tong et al., 2017; cited from earlier work.
The next data set deals with Olfr57 (Mus musculus, UniProt Q8VGU7). Nature of the data set: cAMP-dependent dual luciferase reporter assay, Olfr57 expressed in HEK293T cells. The conditions noted are these: for EC50: HEK293T cells expressing Olfr57, Firefly:Renilla ratio, 4 h, dose response of at least 6 concentrations, read-out: EC50 for activation of Olfr57; for Olfr57 activation (cAMP-mediated response), in words: HEK293T cells expressing Olfr57. Format: cell-based. The text has this:
(§1) For ORs whose trafficking conditions could be established as described above, an unbiased ligand screen using a dual-luciferase reporter assay (Promega) was used to identify potential ligands. Briefly, ORs were transiently transfected (Lipofectamine 2000, Invitrogen) in triplicate into HEK293T cells along with constructs encoding for CREB-dependent luciferase (Firefly) and a constitutively expressed luciferase (Renilla), along with any accessory proteins previously established to be required for effective cell-surface trafficking. Additional surface labeling experiments were performed with the Firefly and Renilla constructs to ensure effective trafficking was not lost under these transfection conditions. OR activation leads to a rise in cAMP which drives an increase in Firefly luciferase expression. Firefly activity is normalized to the activity of the Renilla luciferase to control for variation in cell number and transfection efficiency. Data were collected using a FLUOstar Omega automated plate reader (BMG LabTech, Cary, NC, United States). Cells were allowed to incubate for at least 30 min in CD293 minimal media, and were then bathed with potential odorants diluted in minimal media for 4 h before measuring Firefly and Renilla-derived luminescence. Initially, screening was performed using odorant mixes that are grouped mainly by functional groups (BzB: nonanal, heptanal, valeraldehyde; BzC: carvone, eugenol, cinnamaldehyde; MA: amyl acetate, 3-octanone, acetophenone; OXLK: 2,3-butanedione, pyruvaldehyde, acetic acid, 1,2-ethanedithiol, 2-butanone; THI-DI: 1,6-hexanedithiol, 1,2-ethanedithiol, 2-methyl-1-propanethiol, 1,2-butanedithiol, 2,3-butanedithiol). These mixtures are known to elicit activation of a large number of olfactory sensory neurons and thus cover a wide range of ‘odorant space’ ([Pluznick et al., 2013]), followed by any known ligands to ORs in the same family as those being tested, as well as physiologically relevant substances. A complete list of chemicals used for screening is found in Supplementary Table 1 and all chemicals tested were obtained from Sigma or Fisher Scientific. To begin, all compounds screened were tested at a minimum of two concentrations (100–300 μm and 1–5 mM) to cover a wide range of potential activation. For each assay, Olfr78 or Olfr1393 and known activators of these receptors (Propionate and Cycloheptanol, respectively) were used as positive controls. In order to determine specific activation, potential activators of one receptor were also tested on at least one other OR simultaneously. Negative controls were performed with both media, and media containing DMSO. […] A significant rise in Firefly:Renilla over baseline was determined by multiple T-Tests ([…] deemed significant).
In general terms: In a reporter assay the amount or activity of a reporter protein is the signal.

Data set [2] has as its system Olfr78 and its human homolog, OR51E2. Also noted: method as in Pluznick et al., 2013. The conditions noted are these: ref Pluznick et al., 2013; cited from earlier work.
The next data set concerns Candida albicans. Also on record: method as in Manoharan et al., 2017. Conditions: ref Manoharan et al., 2017; cited from earlier work.
The subject of another data set is Olfr544. Also on record: method as in Abaffy et al., 2007; Kang et al., 2015; Thach et al., 2017. The conditions noted are these: ref Abaffy et al., 2007; Kang et al., 2015; Thach et al., 2017; cited from earlier work.
Another data set concerns the target Olfr177 (Mus musculus, UniProt E9Q7W1). Nature of the data set: cAMP-dependent dual luciferase reporter assay, Olfr177 expressed in HEK293T cells. Format: cell-based. The conditions noted are these: for EC50: HEK293T cells expressing Olfr177, Firefly:Renilla ratio, 4 h, dose response of at least 6 concentrations, read-out: EC50 for activation of Olfr177; for Olfr177 activation (cAMP response, Firefly:Renilla), in words: HEK293T cells expressing Olfr177.
Text: as §1

The next data set concerns phosphodiesterase. Also on record: method as in Parra, 2012. Conditions: ref Parra, 2012; cited from earlier work.
A further data set relates to OR5K1. Also noted: method as in Wilkin Françoise et al., 2015. The conditions noted are these: ref Wilkin Françoise et al., 2015; cited from earlier work.
The test system of the next data set is heme oxygenase. Also on record: method as in Parra, 2012. The conditions noted are these: hepatocellular carcinoma line (HepG2); ref Parra, 2012; cited from earlier work.
For the next data set, the system named is CYP2A6. Also noted: method as in Gyoubu and Miyazawa, 2007; Miyazawa and Gyoubu, 2007. The conditions noted are these: ref Gyoubu and Miyazawa, 2007; cited from earlier work.
The next data set concerns MOR139-1. Also noted: method as in Hiroaki Matsunami, 2010. The conditions noted are these: ref Hiroaki Matsunami, 2010; cited from earlier work.

“Also recorded” adds a separate entry of the source.

Chain of Olfr177 (E9Q7W1 entry or part of it): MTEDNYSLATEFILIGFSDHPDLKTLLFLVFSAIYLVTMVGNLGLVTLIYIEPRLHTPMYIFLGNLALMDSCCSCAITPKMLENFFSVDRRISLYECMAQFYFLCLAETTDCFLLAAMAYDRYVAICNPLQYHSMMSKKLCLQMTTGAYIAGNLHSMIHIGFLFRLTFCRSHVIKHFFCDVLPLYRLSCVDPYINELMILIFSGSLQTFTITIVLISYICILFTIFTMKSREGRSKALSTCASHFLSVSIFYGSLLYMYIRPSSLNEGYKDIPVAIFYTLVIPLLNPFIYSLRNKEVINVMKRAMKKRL
Chain of Olfr57 (Q8VGU7 entry or part of it): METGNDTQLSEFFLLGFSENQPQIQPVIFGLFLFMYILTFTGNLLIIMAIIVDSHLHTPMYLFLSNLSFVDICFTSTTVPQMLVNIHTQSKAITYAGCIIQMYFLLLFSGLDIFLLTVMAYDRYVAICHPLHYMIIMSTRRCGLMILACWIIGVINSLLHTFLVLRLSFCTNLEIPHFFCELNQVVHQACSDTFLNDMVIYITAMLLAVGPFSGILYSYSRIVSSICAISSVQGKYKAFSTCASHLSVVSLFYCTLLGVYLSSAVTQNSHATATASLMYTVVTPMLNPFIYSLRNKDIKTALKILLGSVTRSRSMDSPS

As to `CC(C)(O)CCCC1=CCC(C=O)CC1` (centres unmarked) [lyral], in data set [1], the “Activation of Olfr16 and OR10J5” value is “activated”. What is called EC50 is the concentration at which the effect is half-maximal. Regarding `CC12CCC(CC1)C(C)(C)O2` [eucalyptol], on Olfr57, the EC50 worked out at 234 µM. On to `C=C1C2CCC(C2)C1(C)C` (centres unmarked) [camphene], for which the “Olfr57 activation (cAMP-mediated response), in words” value (from here on “Olfr57 activation”) at Olfr57 is “did not elicit a cAMP-mediated response; also recorded: non-activators”. For the compound `CC(=O)/C=C/C1=C(C)CCCC1(C)C` [β-ionone], the “Response of Olfr78 and OR51E2” value in data set [2] was “respond”. Turning to `CC12CCC(C1)C(C)(C)C2O` (centres unmarked) [fenchyl alcohol], the EC50 at Olfr57 turned out to be 45 µM. In addition, the “antibiofilm and antihyphal properties” value with Candida albicans is “antibiofilm and antihyphal properties”.

With `O=C(O)CCCCCCCC(=O)O` [azelaic acid], in the data set with Olfr544, the “Activation of Olfr544” value was “activated”. Take `CCc1nccnc1C` [2-ethyl-3-methylpyrazine]: the EC50 on Olfr177 came to 1670 µM. As to `CC(C)[C@]12CC(=O)[C@H](C)[C@H]1C2` [thujone], at Olfr57, the “Olfr57 activation” value was “did not elicit a cAMP-mediated response; also recorded: non-activators”. On to `CC1=CC[C@@]23CC1C(C)(C)[C@@H]2CC[C@H]3C` [α-cedrene], for which the “Activation of Olfr16 and OR10J5” value in [1] is on record as “activated”. Consider `CCc1ncc(C)nc1C` [2-ethyl-3,5-dimethylpyrazine], for which the phosphodiesterase activity result with phosphodiesterase is “inhibit”. The “Activation of OR5K1” value with OR5K1 is given as “activated”. For the same compound, the heme oxygenase activity result in the data set on heme oxygenase is “induced”. In addition, on Olfr177, the “Olfr177 activation (cAMP response, Firefly:Renilla), in words” value (“Olfr177 activation” below) is “significant increase” and the EC50 worked out at 1070 µM.

With `C=C1CCC2CC1C2(C)C` (centres unmarked) [pinene], the “Olfr57 activation” value at Olfr57 is “did not elicit a cAMP-mediated response; also recorded: non-activators”. Regarding `CC1(C)C2CCC1(C)C(O)C2` (centres unmarked) [borneol], the EC50 at Olfr57 came out at 240 µM. The “antibiofilm and antihyphal properties” value in the data set with Candida albicans was “antibiofilm and antihyphal properties”. Take `Cc1cnc(C)c(C)n1` [2,3,5-trimethylpyrazine]: the “Olfr177 activation” value on Olfr177 is “failed to plateau”.

For `c1cnccn1` [pyrazine], the “Olfr177 activation” value at Olfr177 is reported as “did not elicit OR activation”. In the case of `O=C1CC2CC[C@H]1C2` [norcamphor], on Olfr57, the “Olfr57 activation” value is reported as “did not elicit a cAMP-mediated response; also recorded: non-activators”. Take `CC(=O)c1ccccc1` [Acetophenone]: the “Activation of Olfr16 and OR10J5” value in [1] is listed as “activated”. Turning to `CC12CCC(C1)C(C)(C)C2=O` [(1R)-(-)-fenchone], the “metabolized in the liver by microsomal enzyme CYP2A6” value in the data set with CYP2A6 is on record as “metabolized”. In addition, on Olfr57, the EC50 is 94 µM. For the same compound, the “antibiofilm and antihyphal properties” value with Candida albicans is “antibiofilm and antihyphal properties”. With (1R)-(+)-camphor, the “Olfr57 activation” value on Olfr57 is reported as “weakly activate”. Besides, the “Response of MOR139-1” value in the data set with MOR139-1 is on record as “respond”. In addition, the “antibiofilm and antihyphal properties” value in the data set with Candida albicans was “antibiofilm and antihyphal properties”. Regarding `CC1(C)C2CCC1(CS(=O)(=O)O)C(=O)C2` (centres unmarked) [camphorsulfonic acid], the “Olfr57 activation” value on Olfr57 was “did not elicit a cAMP-mediated response; also recorded: non-activators”.
